One data set addresses NET (Homo sapiens, UniProt P23975). As to the kind of experiment: Preliminary test of NET binding effect of YL-0911. The following applies: 10^-5 and 10^-7 mol/L; NET protein from HEK-293 cell line. The source says:
(4) Preliminary Test of NET Binding Effect of YL-0911 and Positive Control Drugs
Two different drug concentrations, 10^−5 and 10^−7 mol/L, were used to determine the binding effect of YL-0911 on NET protein extracted from the HEK-293 cell lines of stably expression NET.

Data set [1] addresses T1, 5-HT transport protein (SERT) (Rattus norvegicus, UniProt P31652).
T1 construct: Preparation of Membrane Proteins in Rat Hippocampi; from tissue; host or cells: Wistar rat hippocampus
As to the kind of experiment: Screening: competitive binding test to SERT using [3H]-citalopram. To be noted: [3H]-citalopram 1 nM, read-out: Inhibition percent (I %), competitive binding to 5-HT transport protein (SERT). Here is the method:
The homogenate was centrifuged under 1000×g for 10 minutes and the supernatant was then centrifuged under 39000×g for 10 minutes. The precipitate was collected, and resuspended with 10 times volume of Tris-HCl buffer solution (pH 7.4) relative to the original weight, then centrifuged under 39000×g for 10 minutes. The precipitate was washed with the same buffer solution, centrifuged under 39000×g for 10 minutes and the precipitate was suspended with the above buffer solution. After sub-packaged (the whole operation procedures were performed under ice bath), the product was stored at −80° C. The protein concentration was measured by Lowrry method.

A further data set concerns the target SERT (Homo sapiens, UniProt P31645). Kind of data set: Competitive binding test of YL-0911 and positive drugs to SERT (hSERT from transfected cell lines).
The subject of data set [2] is mice. Kind of data set: Forced swim test in mice. The class given is in vivo. To be noted: acute, 1 h before test. As to the method: 2.1.1 Forced Swim Test in Mice
Forced swim test in mice is an acute behavioral despair model established by Porsolt, et al.
(1) Experimental device: a glass cylinder (diameter 13 cm, height 24 cm, containing 10 cm of water maintained at 25).
(2) Experimental method: Male Kunming mice weighing 20-25 g. The mice were gently put in the water 1 h after intragastrically drug administration, and then the duration of immobility in the last 4 min of total 6 min test was recorded.

Data set [3] relates to mice. As to the kind of experiment: Hole board test in mice. The class given is in vivo. The following applies: long-term (23 days); for Number of Head dips / Time of head dipping: 5 min. As to the method: Hole board test, an animal model of anxiety established by Boissie, et al (1962), was performed in mice.
1) Experimental device: a transparent Perspex box (40×40×27 cm) which had four holes (3 cm in diameter, 1.8 cm in depth) in the floor. The distance of each hole center to its closest wall is 10 cm.
2) Experimental method: Male Kunming mice weighing 20-25 g. The mice were intragastrically administered with YL-0911 or vehicle (distilled water). After 23 days, the mice were placed at center of the hole board with their backs facing to the observer. A head dip was scored if the animal's head dipped into the hole at least up to eye level The latency to the first head-dip, the number of head-dips and the time spent in head-dipping were recorded for 5 min.

For data set [4], the system named is mice. As to the kind of experiment: Novel object recognition test in mice. The class given is in vivo. To be noted: repeated daily, tested day 8, mice. Here is the method: Novel object recognition test is a cognitive behavior model established by Lima, et al.
1) Experimental device: a white Perspex box (60×60×16 cm), two completely identical objects, and one completely different object.
2) Experimental method: Male Kunming mice weighing 20-25 g. The mice were intragastrically administered with YL-0911 or vehicle (distilled water) for 5 days. On day 6, after treatment with YL-0911 or vehicle, each mouse was placed into the Perspex box at the same place for 5 min as habituation. On day 7, the mice were administered YL-0911 or vehicle and then individually placed in the Perspex box at the same place containing two identical objects located in the two diagonal corners for 5 minutes. On day 8, mice were tested for memory using the same procedure as day 7 except that one of the familiar objects was replaced with a novel object.

The test system of data set [5] is mice. As to the kind of experiment: Tail suspension test in mice. It is filed as in vivo. The following applies: acute, 1 h before test. From the text: 2.1.2 Tail Suspension Test in Mice
Tail suspension test in mice is an acute behavioral despair model established by Stem, et al. (1985).
1) Experimental device: an experimental frame with spacing boards which dividing the experimental frame into 2 experimental chambers (20×25×30 cm). A clamp is mounted on a through cross rod in the chamber for clamping mice tail so as to suspend the mice.
2) Experimental method: Male Kunming mice weighing 20-25 g. The mice were intragastrically administered with YL-0911 or vehicle (distilled water). After 1 h, wrap adhesive tape around the mouse's tail in position three quarters of the distance from the base of the tail and then suspend the animals by passing the suspension hook through the adhesive tape 5 cm above the table. The duration of immobility in the last 4 min of total 6 min test was recorded.

T1 sequence (P31652 whole entry): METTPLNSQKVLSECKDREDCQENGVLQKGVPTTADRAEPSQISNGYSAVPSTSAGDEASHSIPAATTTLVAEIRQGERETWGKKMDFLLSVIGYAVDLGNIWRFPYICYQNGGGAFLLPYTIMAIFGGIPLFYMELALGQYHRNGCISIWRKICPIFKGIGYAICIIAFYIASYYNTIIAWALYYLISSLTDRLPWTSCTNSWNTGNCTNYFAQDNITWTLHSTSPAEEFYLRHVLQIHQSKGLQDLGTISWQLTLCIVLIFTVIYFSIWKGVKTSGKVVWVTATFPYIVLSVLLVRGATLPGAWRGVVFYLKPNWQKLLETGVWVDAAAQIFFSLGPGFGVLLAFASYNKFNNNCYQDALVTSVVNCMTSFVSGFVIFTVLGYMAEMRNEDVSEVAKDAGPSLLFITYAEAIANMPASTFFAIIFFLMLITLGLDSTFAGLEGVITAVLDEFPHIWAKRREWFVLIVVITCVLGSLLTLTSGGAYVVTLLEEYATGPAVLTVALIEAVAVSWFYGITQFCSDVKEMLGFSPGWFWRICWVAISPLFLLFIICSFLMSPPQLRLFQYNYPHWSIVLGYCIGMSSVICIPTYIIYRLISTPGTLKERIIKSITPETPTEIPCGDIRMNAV
Sequence of SERT (P31645 whole entry): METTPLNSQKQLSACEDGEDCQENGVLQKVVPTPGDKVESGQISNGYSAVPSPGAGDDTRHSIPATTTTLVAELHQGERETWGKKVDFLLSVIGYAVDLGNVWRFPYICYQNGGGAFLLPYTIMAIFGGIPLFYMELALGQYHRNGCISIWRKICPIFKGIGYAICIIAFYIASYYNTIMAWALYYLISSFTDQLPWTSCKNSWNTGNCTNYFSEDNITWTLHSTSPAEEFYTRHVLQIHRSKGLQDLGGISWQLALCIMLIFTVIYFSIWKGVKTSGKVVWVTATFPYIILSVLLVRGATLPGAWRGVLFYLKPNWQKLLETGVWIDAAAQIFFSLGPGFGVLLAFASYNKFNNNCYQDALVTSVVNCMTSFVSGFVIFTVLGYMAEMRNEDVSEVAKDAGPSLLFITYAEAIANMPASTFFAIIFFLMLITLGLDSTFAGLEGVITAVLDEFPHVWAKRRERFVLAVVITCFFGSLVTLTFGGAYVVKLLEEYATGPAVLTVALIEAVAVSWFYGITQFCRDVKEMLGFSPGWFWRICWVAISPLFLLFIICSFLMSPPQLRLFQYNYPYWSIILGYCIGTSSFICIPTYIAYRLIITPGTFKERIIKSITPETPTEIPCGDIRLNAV
Sequence of NET (P23975 whole entry): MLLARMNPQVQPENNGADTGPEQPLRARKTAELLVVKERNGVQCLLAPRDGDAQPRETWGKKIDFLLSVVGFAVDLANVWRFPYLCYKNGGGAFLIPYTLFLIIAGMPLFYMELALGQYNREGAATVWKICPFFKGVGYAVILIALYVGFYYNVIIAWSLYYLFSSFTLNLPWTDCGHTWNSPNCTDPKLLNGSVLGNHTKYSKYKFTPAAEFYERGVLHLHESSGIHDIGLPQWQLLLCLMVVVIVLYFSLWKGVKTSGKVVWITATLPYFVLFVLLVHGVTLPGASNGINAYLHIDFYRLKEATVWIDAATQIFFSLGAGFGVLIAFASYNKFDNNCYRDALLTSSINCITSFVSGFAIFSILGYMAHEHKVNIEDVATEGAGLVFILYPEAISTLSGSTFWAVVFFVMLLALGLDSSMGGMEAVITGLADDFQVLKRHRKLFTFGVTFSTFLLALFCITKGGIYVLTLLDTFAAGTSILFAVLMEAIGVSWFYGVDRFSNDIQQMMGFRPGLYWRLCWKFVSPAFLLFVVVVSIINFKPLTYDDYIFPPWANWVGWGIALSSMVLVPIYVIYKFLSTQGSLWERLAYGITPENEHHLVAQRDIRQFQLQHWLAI

In turn, `O=c1ccccn1CC1(O)CCN(Cc2ccccc2)CC1` [Compound 1, 1-[(1-benzyl-4-hydroxypiperidin-4-yl)-methyl]-pyridin-2(1H)-one] returned a melting point of 216 to 218 °C. Moreover, the “affinity to NET (selectivity)” value on NET was “obviously lower than the affinity to SERT and 5-HT1A”. In addition, in data set [1] (compound 10^-5 mol/L), the inhibition at 10 µM is 100%. Further, the inhibition at 0.1 µM in data set [1] (compound 10^-7 mol/L) turned out to be 84%. Moreover, the affinity at SERT corresponds to a Ki of 5.38 ± 0.27 nM. In the data set with mice [2] (0.625 mg/kg p.o.), the “Immobility time (s), forced swim test” value came to 126.1 ± 60.9 s. Moreover, the “Immobility time (s), forced swim test” value in the data set with mice [2] (1.25 mg/kg p.o.) came out at 72.0 ± 46.5 s. Besides, in the data set on mice [2] (5 mg/kg p.o.), the “Immobility time (s), forced swim test” value is given as 149.6 ± 39.1 s. In addition, in the data set on mice [3] (0.625 mg/kg p.o.), the “the latency to the first head-dip” value stood at 62.60 ± 16.75 s, the “Number of Head dips” value stood at 6.40 ± 0.97 and the “Time of head dipping” value was found to be 3.75 ± 0.91 s. Moreover, in the data set with mice [3] (1.25 mg/kg p.o.), the “the latency to the first head-dip” value is on record as 33.00 ± 6.34 s, the “Number of Head dips” value is listed as 10.60 ± 1.17 and the “Time of head dipping” value stood at 6.86 ± 0.55 s. Moreover, in the data set with mice [3] (5 mg/kg p.o.), the “the latency to the first head-dip” value came out at 31.60 ± 6.88 s, the “Number of Head dips” value is given as 7.40 ± 1.00 and the “Time of head dipping” value was 5.95 ± 0.93 s. In the data set on mice [4] (0.625 mg/kg p.o.), this compound registered a Recognition index of 59.95 ± 2.74. The same compound came in with a Recognition index with mice [4] (1.25 mg/kg p.o.) of 64.76 ± 5.02. The “Immobility time (s), tail suspension test” value with mice [5] (0.625 mg/kg p.o.) was determined as 105.4 ± 24.6 s. Further, the “Immobility time (s), tail suspension test” value with mice [5] (1.25 mg/kg p.o.) was determined as 93.8 ± 38.7 s. Also, the “Immobility time (s), tail suspension test” value in the data set on mice [5] (5 mg/kg p.o.) is 98.8 ± 45.3 s.

In general, melting point refers to the temperature, or range, at which the solid turns liquid. Broadly, the inhibition is the share of the control response that was lost under treatment. By Ki is commonly meant a dissociation constant, usually derived from enzyme kinetics or from competition with a known ligand. A high value points to a looser hold on the target.

(Values after patent US8921563B2, “1-[(4-hydroxypiperidin-4-yl)methyl]pyridin-2(1H)-one derivatives, preparation methods and uses thereof” (Institue of Pharmacology and Toxicology Academy of Military …, priority 2010, dated 2014).)
